Results from patent US11542240B2, “STK19 inhibitors for treatment of cancer” (TRUSTEES OF BOSTON UNIVERSITY, priority 2018, dated 2023).

Assays:
Test in all cases: biochemical
Assay type in all cases: binding
[1] = target: panel of 468 diverse kinases (Homo sapiens, UniProt O14757); settings: CHEK1; 1000 nM; read-out: Percent Control
[2] = target: panel of 468 diverse kinases (Homo sapiens, UniProt O43318); settings: TAK1; 1000 nM; read-out: Percent Control
[3] = target: panel of 468 diverse kinases (Homo sapiens, UniProt O96017); settings: CHEK2; 1000 nM; read-out: Percent Control
[4] = target: panel of 468 diverse kinases (Homo sapiens, UniProt P00533, L858R/T790M); settings: EGFR(L858R, T790M); 1000 nM; read-out: Percent Control
[5] = target: panel of 468 diverse kinases (Homo sapiens, UniProt P21709); settings: EPHA1; 1000 nM; read-out: Percent Control
[6] = target: panel of 468 diverse kinases (Homo sapiens, UniProt P22607, G697C); settings: FGFR3(G697C); 1000 nM; read-out: Percent Control
[7] = target: panel of 468 diverse kinases (Homo sapiens, UniProt P28482); settings: ERK2; 1000 nM; read-out: Percent Control
[8] = target: panel of 468 diverse kinases (Homo sapiens, UniProt P29322); settings: EPHA8; 1000 nM; read-out: Percent Control
[9] = target: panel of 468 diverse kinases (Homo sapiens, UniProt P36896); settings: ACVR1B; 1000 nM; read-out: Percent Control
[10] = target: panel of 468 diverse kinases (Homo sapiens, UniProt P42336, E542K); settings: PIK3CA(E542K); 1000 nM; read-out: Percent Control
[11] = target: panel of 468 diverse kinases (Homo sapiens, UniProt P42336, H1047Y); settings: PIK3CA(H1047Y); 1000 nM; read-out: Percent Control
[12] = target: panel of 468 diverse kinases (Homo sapiens, UniProt P42336, Q546K); settings: PIK3CA(Q546K); 1000 nM; read-out: Percent Control
[13] = target: panel of 468 diverse kinases (Homo sapiens, UniProt P43403); settings: ZAP70; 1000 nM; read-out: Percent Control
[14] = target: panel of 468 diverse kinases (Homo sapiens, UniProt P51617); settings: IRAK1; 1000 nM; read-out: Percent Control
[15] = target: panel of 468 diverse kinases (Homo sapiens, UniProt P54764); settings: EPHA4; 1000 nM; read-out: Percent Control
[16] = target: panel of 468 diverse kinases (Homo sapiens, UniProt Q02750); settings: MEK1; 1000 nM; read-out: Percent Control
[17] = target: panel of 468 diverse kinases (Homo sapiens, UniProt Q13163); settings: MEK5; 1000 nM; read-out: Percent Control
[18] = target: panel of 468 diverse kinases (Homo sapiens, UniProt Q13164); settings: ERK5; 1000 nM; read-out: Percent Control
[19] = target: panel of 468 diverse kinases (Homo sapiens, UniProt Q13188); settings: MST2; 1000 nM; read-out: Percent Control
[20] = target: panel of 468 diverse kinases (Homo sapiens, UniProt Q6P3R8); settings: NEK5; 1000 nM; read-out: Percent Control
[21] = target: panel of 468 diverse kinases (Homo sapiens, UniProt Q6PHR2); settings: ULK3; 1000 nM; read-out: Percent Control
[22] = target: panel of 468 diverse kinases (Homo sapiens, UniProt Q6XUX3); settings: RIPK5; 1000 nM; read-out: Percent Control
[23] = target: panel of 468 diverse kinases (Homo sapiens, UniProt Q8IVH8); settings: MAP4K3; 1000 nM; read-out: Percent Control
[24] = target: panel of 468 diverse kinases (Homo sapiens, UniProt Q8IWQ3); settings: BRSK2; 1000 nM; read-out: Percent Control
[25] = target: panel of 468 diverse kinases (Homo sapiens, UniProt Q8NEB9); settings: VPS34; 1000 nM; read-out: Percent Control
[26] = target: panel of 468 diverse kinases (Homo sapiens, UniProt Q8NFD2); settings: ANKK1; 1000 nM; read-out: Percent Control
[27] = target: panel of 468 diverse kinases (Homo sapiens, UniProt Q8TDR2); settings: STK35; 1000 nM; read-out: Percent Control
[28] = target: panel of 468 diverse kinases (Homo sapiens, UniProt Q99755); settings: PIP5KIV; 1000 nM; read-out: Percent Control
[29] = target: panel of 468 diverse kinases (Homo sapiens, UniProt Q9BQI3); settings: EIF2AK1; 1000 nM; read-out: Percent Control
[30] = target: panel of 468 diverse kinases (Homo sapiens, UniProt Q9H3Y6); settings: SRMS; 1000 nM; read-out: Percent Control
[31] = target: panel of 468 diverse kinases (Homo sapiens, UniProt Q9UM73, L1196M); settings: ALK(L1196M); 1000 nM; read-out: Percent Control
Chain of panel of 468 diverse kinases (Homo sapiens, UniProt Q9UM73, L1196M) (Q9UM73 19-1620 L1196M limits assumed): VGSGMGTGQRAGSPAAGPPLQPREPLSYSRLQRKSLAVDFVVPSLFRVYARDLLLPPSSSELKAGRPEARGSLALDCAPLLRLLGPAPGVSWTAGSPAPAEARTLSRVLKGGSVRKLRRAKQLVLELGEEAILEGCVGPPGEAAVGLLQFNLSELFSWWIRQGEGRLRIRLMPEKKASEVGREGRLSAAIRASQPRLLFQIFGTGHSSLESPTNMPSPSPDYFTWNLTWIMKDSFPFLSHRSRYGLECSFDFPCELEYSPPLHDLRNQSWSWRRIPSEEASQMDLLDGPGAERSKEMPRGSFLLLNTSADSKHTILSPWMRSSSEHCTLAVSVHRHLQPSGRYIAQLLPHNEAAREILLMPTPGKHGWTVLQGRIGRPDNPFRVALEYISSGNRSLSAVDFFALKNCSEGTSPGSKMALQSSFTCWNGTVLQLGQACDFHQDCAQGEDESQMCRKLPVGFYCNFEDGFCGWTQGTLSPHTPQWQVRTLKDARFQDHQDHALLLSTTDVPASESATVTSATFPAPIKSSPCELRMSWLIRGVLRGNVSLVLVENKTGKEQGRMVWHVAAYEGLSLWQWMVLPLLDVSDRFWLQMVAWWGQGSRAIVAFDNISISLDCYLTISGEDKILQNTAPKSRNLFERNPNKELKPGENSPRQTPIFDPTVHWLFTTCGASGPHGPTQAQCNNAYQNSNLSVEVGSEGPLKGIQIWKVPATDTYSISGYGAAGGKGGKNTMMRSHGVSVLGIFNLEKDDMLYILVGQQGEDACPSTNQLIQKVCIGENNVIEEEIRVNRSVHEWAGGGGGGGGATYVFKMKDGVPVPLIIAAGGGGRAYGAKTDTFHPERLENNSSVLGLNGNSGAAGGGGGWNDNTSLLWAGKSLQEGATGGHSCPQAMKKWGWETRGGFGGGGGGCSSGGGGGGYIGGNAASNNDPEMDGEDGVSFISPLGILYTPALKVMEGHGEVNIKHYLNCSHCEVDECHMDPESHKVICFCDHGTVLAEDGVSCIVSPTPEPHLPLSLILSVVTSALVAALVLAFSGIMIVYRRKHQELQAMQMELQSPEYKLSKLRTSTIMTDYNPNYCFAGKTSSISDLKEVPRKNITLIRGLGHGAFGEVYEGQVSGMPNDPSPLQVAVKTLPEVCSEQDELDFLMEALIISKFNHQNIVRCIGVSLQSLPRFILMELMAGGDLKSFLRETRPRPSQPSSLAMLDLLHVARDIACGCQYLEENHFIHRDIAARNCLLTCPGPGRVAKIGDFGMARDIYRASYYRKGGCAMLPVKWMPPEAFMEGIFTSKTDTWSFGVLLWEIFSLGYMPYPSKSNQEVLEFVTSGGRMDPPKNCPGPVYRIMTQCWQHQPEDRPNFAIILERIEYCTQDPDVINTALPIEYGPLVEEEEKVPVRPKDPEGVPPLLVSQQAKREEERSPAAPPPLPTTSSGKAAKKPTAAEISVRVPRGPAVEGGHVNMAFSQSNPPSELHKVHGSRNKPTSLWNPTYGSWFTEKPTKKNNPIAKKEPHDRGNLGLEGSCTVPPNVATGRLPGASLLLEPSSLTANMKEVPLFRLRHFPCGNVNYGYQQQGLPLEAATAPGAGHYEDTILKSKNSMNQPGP

Chain of panel of 468 diverse kinases (Homo sapiens, UniProt Q13164) (Q13164 2-816 limits assumed): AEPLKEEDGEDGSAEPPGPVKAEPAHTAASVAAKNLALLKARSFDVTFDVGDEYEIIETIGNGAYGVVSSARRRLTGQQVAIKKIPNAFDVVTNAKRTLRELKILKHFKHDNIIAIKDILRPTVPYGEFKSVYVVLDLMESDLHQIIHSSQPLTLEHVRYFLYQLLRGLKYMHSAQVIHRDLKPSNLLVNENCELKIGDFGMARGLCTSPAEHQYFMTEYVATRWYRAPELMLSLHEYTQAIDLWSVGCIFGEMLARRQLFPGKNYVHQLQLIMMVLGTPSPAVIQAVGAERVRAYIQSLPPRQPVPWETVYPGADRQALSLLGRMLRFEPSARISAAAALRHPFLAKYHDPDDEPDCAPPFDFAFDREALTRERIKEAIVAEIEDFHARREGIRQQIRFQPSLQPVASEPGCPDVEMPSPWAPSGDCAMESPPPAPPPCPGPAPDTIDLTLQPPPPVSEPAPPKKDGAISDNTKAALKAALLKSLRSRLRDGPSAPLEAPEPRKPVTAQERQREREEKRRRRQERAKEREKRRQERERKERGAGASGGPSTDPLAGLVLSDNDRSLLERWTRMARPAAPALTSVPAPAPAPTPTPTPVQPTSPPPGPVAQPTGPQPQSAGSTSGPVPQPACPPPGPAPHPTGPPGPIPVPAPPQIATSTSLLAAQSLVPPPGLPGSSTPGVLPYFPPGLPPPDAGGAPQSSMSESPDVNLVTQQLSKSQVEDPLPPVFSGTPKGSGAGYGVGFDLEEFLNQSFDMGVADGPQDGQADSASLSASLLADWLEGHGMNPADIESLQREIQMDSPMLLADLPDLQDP
Chain of panel of 468 diverse kinases (Homo sapiens, UniProt P00533, L858R/T790M) (P00533 25-1210 T790M/L858R limits assumed): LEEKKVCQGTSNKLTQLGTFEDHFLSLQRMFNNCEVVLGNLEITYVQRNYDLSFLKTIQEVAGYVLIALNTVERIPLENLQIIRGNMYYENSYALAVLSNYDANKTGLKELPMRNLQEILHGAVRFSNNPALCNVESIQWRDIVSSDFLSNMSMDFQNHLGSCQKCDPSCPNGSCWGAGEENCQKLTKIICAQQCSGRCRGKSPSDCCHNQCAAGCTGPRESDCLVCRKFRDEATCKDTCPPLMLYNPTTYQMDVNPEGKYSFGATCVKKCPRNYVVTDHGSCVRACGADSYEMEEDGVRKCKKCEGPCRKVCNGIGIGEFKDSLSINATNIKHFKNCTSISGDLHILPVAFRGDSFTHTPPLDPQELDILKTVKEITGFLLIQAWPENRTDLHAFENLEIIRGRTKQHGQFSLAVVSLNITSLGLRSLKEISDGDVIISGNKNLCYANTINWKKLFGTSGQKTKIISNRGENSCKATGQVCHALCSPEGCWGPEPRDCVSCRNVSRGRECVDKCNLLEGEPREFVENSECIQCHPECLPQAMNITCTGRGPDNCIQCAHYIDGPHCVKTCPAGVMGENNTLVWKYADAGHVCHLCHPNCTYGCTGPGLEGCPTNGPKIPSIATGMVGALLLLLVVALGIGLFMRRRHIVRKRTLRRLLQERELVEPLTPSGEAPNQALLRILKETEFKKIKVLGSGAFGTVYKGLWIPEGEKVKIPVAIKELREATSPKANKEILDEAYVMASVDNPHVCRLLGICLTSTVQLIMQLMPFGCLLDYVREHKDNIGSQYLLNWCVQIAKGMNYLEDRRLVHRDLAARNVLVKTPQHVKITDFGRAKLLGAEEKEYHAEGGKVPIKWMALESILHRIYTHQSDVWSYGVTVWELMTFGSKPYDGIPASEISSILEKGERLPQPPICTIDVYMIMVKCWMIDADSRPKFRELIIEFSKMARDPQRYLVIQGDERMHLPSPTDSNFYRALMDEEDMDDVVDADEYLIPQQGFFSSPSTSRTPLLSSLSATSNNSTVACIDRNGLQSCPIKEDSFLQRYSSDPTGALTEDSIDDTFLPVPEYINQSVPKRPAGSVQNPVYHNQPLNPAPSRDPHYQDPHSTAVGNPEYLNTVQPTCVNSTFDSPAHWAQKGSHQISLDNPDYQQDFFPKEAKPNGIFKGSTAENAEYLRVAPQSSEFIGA
Chain of panel of 468 diverse kinases (Homo sapiens, UniProt P21709) (P21709 26-976 limits assumed): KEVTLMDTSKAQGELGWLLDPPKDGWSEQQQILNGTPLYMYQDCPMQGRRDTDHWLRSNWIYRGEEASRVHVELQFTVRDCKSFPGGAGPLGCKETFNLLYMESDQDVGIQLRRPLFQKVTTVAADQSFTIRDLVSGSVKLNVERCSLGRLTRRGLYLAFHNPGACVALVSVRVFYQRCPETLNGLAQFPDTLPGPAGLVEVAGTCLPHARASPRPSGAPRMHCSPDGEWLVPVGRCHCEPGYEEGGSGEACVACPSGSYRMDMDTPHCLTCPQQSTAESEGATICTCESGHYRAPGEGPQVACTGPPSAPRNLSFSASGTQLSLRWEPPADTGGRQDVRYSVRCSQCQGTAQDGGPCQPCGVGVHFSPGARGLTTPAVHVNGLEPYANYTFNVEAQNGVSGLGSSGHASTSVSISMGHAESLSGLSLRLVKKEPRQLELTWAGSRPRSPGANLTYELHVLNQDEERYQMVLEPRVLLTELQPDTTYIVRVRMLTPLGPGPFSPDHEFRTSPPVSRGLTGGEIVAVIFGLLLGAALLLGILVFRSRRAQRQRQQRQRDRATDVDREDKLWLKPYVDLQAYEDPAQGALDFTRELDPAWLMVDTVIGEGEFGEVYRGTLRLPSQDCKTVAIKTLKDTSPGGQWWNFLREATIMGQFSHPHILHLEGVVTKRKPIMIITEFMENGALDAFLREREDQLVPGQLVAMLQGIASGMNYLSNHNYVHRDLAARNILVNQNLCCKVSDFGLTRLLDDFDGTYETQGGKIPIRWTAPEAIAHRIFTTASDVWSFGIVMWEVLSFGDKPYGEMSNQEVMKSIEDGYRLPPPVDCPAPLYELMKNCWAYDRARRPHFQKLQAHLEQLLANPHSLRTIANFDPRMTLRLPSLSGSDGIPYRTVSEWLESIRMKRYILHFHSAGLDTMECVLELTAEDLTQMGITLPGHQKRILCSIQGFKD
Chain of panel of 468 diverse kinases (Homo sapiens, UniProt P28482) (P28482 2-360 limits assumed): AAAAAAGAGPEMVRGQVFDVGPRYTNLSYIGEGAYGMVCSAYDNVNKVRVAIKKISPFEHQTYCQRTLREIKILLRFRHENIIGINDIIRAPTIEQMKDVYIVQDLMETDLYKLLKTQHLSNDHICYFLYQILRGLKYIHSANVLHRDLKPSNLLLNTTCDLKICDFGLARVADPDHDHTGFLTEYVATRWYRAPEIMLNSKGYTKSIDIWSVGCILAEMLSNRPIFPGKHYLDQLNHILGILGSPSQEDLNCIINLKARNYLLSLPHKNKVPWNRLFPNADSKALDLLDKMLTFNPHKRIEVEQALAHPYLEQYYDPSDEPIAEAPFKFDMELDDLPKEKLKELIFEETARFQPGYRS

COc1cc2nc(NC3CC3)nc(NC3CCN(C(C)C)CC3)c2cc1OC [Formula IV]
remaining activity at 1 µM [1]: 93% | remaining activity at 1 µM [2]: 84% | remaining activity at 1 µM [3]: 100% | remaining activity at 1 µM [4]: 35% | remaining activity at 1 µM [5]: 100% | remaining activity at 1 µM [6]: 100% | remaining activity at 1 µM [7]: 81% | remaining activity at 1 µM [8]: 93% | remaining activity at 1 µM [9]: 94% | remaining activity at 1 µM [10]: 70% | remaining activity at 1 µM [11]: 91% | remaining activity at 1 µM [12]: 54% | remaining activity at 1 µM [13]: 91% | remaining activity at 1 µM [14]: 80% | remaining activity at 1 µM [15]: 100% | remaining activity at 1 µM [16]: 63% | remaining activity at 1 µM [17]: 60% | remaining activity at 1 µM [18]: 86% | remaining activity at 1 µM [19]: 100% | remaining activity at 1 µM [20]: 90% | remaining activity at 1 µM [21]: 71% | remaining activity at 1 µM [22]: 54% | remaining activity at 1 µM [23]: 91% | remaining activity at 1 µM [24]: 100% | remaining activity at 1 µM [25]: 51% | remaining activity at 1 µM [26]: 50% | remaining activity at 1 µM [27]: 94% | remaining activity at 1 µM [28]: 96% | remaining activity at 1 µM [29]: 73% | remaining activity at 1 µM [30]: 89% | remaining activity at 1 µM [31]: 78%
